Experimental findings from patent US20230405063A1, “USE OF PROBIOTIC COMPONENT AND PHARMACEUTICAL COMPOSITION CONTAINING PROBIOTIC COMPONENT” (CHENGDU KUACHANGAOPU MEDICAL TECHNOLOGY CO., LTD., priority 2020, published 2023) are described below.

What all share (assay type): in vivo
In test [1] the test system is human pancreatic cancer cells (PANC-1). As to the kind of experiment: Tumor inhibition in PANC-1 tumor-bearing nude mice, probiotic component/gemcitabine (Example 7, Table 13). To be noted: dosed once, 100 μl/mouse/time, 7th day, probiotic component = supernatant component of disrupted Saccharomyces cerevisiae. An excerpt:
The method for determining the effect of combined drug administration in animal experiments was Burgi method (Burgi Y. Pharmacology; Drug actions and reactions. […] The Burgi method was modified by Zhengjun JIN (Zhengjun JIN, Equal probability and curve and “Q50”, Journal of the Second Shanghai Medical College; 1981, 1, 75-86) with q calculated as: q=EA+B/(EA+EB-EA×EB). In the following examples of the present invention, the combinational pharmaceutical efficacies (drug efficacies) of drug A and drug B co-administration was determined by ratio q of actual pharmaceutical efficacy (drug efficacy)/theoretical pharmaceutical efficacy (drug efficacy) according to Zhengjun JIN method, as follows. […] The model animals were randomly divided into 13 groups, and the drugs were administered according to Table 13.

The test system of a further test is lung tumor cells (A549). As to the kind of experiment: Tumor inhibition in A549 tumor-bearing nude mice, co-administration (Example 5, Table 7). To be noted: dosed once, 7th day, probiotic component = heat-inactivated Saccharomyces boulardii. The text has this: (§1) The method for determining the effect of combined drug administration in animal experiments was Burgi method (Burgi Y. Pharmacology; Drug actions and reactions. Cancerres. 1978, 38(2), 284-285). The Burgi method was modified by Zhengjun JIN (Zhengjun JIN, Equal probability and curve and “Q50”, Journal of the Second Shanghai Medical College; 1981, 1, 75-86) with q calculated as: q=EA+B/(EA+EB−EA×EB). In the following examples of the present invention, the combinational pharmaceutical efficacies (drug efficacies) of drug A and drug B co-administration was determined by ratio q of actual pharmaceutical efficacy (drug efficacy)/theoretical pharmaceutical efficacy (drug efficacy) according to Zhengjun JIN method, as follows.
Nude mice were used as experimental subjects, and lung tumor cells (A549) were used as modeling cells, 1×10^5 cells/mouse were injected into the right axilla subcutaneously for transplantation tumor modeling, and the average tumor volume of successfully modeled nude mice was 153.7 mm^3. The model animals were randomly divided into 18 groups, and the drugs were administered according to the drug components and administration route in Table 7. Each group was dosed once with an injection volume of […]. Wherein, the probiotic component was heat-inactivated Saccharomyces boulardii, and the administration route of group 16 was intra-tumoral injection of probiotic component followed by intra-tumoral injection of 10% arginine about 2 hours later. On the 7th day after drug administration, the animals were euthanized, and after dissection, the tumor tissue was taken out to determine the tumor weight, and the tumor inhibition rate (r) was calculated relative to the negative control group. Further, the actual efficacy/expected efficacy ratio q of a drug could also be calculated according to the therapeutic effect (tumor inhibition rate).

Test [2] concerns breast cancer 4T1 cells. As to the kind of experiment: Extra-tumoral local administration in 4T1 tumor-bearing BALB/c mice, R7d/R21d (Example 11, Table 17). To be noted: subaxillary intradermal (extra-tumoral), twice at 7-day interval, 120 μl/mouse/time; for R7 d (relative tumor proliferation rate): day 7 after last dose; for R21 d (relative tumor proliferation rate): day 21 after last dose. As to the method:
(§2) V=0.5×a×b^2, wherein a and b represent the length and width of the local lesion, respectively; Volume of the local lesion (e.g. tumor):
(§3) Local lesion (e.g., tumor) proliferation rate (R)=TV/CV×100, wherein TV and CV are the local lesion volumes in the study group and negative control group, respectively;
(§4) In the following examples of the present invention, the combinational pharmaceutical efficacies (drug efficacies) of drug A and drug B co-administration was determined by ratio q of actual pharmaceutical efficacy (drug efficacy)/theoretical pharmaceutical efficacy (drug efficacy) according to Zhengjun JIN method, as follows.
BALB/c mice were used as experimental subjects, and breast cancer 4T1 cells were used as modeling cells. 0.25×10^5 cells/mouse were injected into the right axilla subcutaneously for transplantation tumor modeling. On the 5th day after modeling, the test animals with visually obvious tumors were randomly divided into 12 groups, having 10 animals in each group. […] In groups 1-11, on days 7 and 21 after the last dose the tumor volume (V7d, V21d) were measured, and the relative tumor proliferation rates (R7d, R21d) were calculated relative to the negative control group on days 7 and 21 after the dose, so that the short-term therapeutic effectiveness (100%−R7d) and the medium- and long-term therapeutic effectiveness (100%−R21d) could be calculated, respectively. Further, based on the short-term therapeutic effectiveness and the medium- and long-term therapeutic effectiveness, the actual/expected ratio for short-term pharmaceutical efficacies q7d and the actual/expected ratio for medium- and long-term pharmaceutical efficacies q21d were calculated respectively.

The subject of test [3] is human hepatoma cells (HepG2). As to the kind of experiment: Tumor inhibition in HepG2 tumor-bearing nude mice, probiotic component/lysine (Example 7, Table 12). To be noted: dosed twice, interval 7 days, 7th day after final administration, probiotic component = supernatant component of disrupted Saccharomyces cerevisiae. As to the method:
as §4
Nude mice were used as experimental subjects, and human hepatoma cells (HepG2) were used as modeling cells. […] The model animals were randomly divided into 13 groups, and the drugs were administered according to Table 12. […] Each group was dosed twice at an interval of 7 days with an injection volume of […]. On the 7th day after final administration, the animals were euthanized, and the tumor tissues were taken out after dissection to determine the tumor weight, and the tumor inhibition rate was calculated relative to the negative control group.

Test [4] concerns breast cancer 4T1 cells. As to the kind of experiment: Short-term tumor inhibition in 4T1 tumor-bearing BALB/c mice (Example 9, Table 14). To be noted: dosed twice, 7th day after final administration.
From the text: as §1
BALB/c mice were used as experimental subjects, and breast cancer 4T1 cells were used as modeling cells. 0.5×10^6 cells/mouse were injected into the right axilla subcutaneously for transplantation tumor modeling, and the average tumor volume of successfully modeled nude mice was 160.1 mm^3. The model animals were randomly divided into 21 groups, and the drugs were administered by intravenous injection (series A) and intratumoral injection (series B) according to the drugs and doses in Table 14, respectively. All the drugs administered were aqueous liquids, which were formulated according to the method of Example 1. Each group was dosed twice. On the 7th day after final administration, the animals were euthanized, and the tumor tissues were taken out after dissection to determine the tumor weight, and the tumor inhibition rates rA and rB were calculated relative to the corresponding negative control groups in series A and series B.

The test system of test [5] is breast cancer 4T1 cells. As to the kind of experiment: Short- and medium/long-term relative tumor proliferation rate in 4T1 tumor-bearing BALB/c mice (Example 10, Table 16). To be noted: intratumoral injection, dosed twice at interval of 7 days, 100 μl/mouse/time.
From the text: as §2, §3, §1
BALB/c mice were used as experimental subjects, and breast cancer 4T1 cells were used as modeling cells. 0.5×10^6 cells/mouse were injected into the right axilla subcutaneously for transplantation tumor modeling, and the average tumor volume of successfully modeled nude mice was 107.4 mm^3. The model animals were randomly divided into 17 groups.
The drugs, formulated according to the method of Example 1, were administered according to Table 16. Each group was dosed twice with an interval of 7 days, and the injection volumes were 300 μl/mouse/time for groups 13 and 14, 100 μl/mouse/time for other groups. The drugs were administered by subaxillary administration of the right forelimb for group 15, and by intratumoral injection for other groups. Group 16 was administered sequentially (the first dose was aprobiotic semi-fluid-like component/cytotoxic drug/weak local acting compound, and the last dose was inactivated probiotics), while the other groups were administered with the same drug twice. On days 7 and 21 after the last dose, the tumor volumes of each group were measured (V7d, V21d), and the relative tumor proliferation rates (R7d, R21d) were calculated relative to the negative control group, respectively, so that the short-term therapeutic effectiveness (100%−R7d) and the medium- and long-term therapeutic effectiveness (100%−R21d) could be calculated, respectively.

In test [6] the test system is human liver cancer HepG2 cells. As to the kind of experiment: Tumor inhibition in HepG2 tumor-bearing nude mice (Example 2, Table 4). The settings on record: dosed once, 150 μl/mouse; for Tumor weight (x ± s): 7th day after administration; for Tumor inhibition rate r: 7th day, relative to negative control. As to the method:
The tumor-bearing nude mice were widely used for drug studies on chemotherapy rather than immunotherapy in patients with solid tumors. Taking nude mice as experimental subjects, human liver cancer HepG2 cells were used as modeling cells, and 1×10^5 cells/mouse were injected into the right axilla subcutaneously for transplantation tumor modeling, and the average tumor volume of successfully modeled nude mice was 161.3 mm^3. The model animals were randomly divided into 17 groups. The drugs were administered according to the drug and dosing method in Table 4. Each group was dosed once with an injection volume of 150 μl/mouse. On the 7th day after drug administration, the animals were euthanized, and after dissection, the tumor tissue was taken out to determine the tumor weight, and the tumor inhibition rate (r) was calculated relative to the negative control group.

The mark [7] stands for this setting: intratumoral injection, '+' = arginine injected about 2 hours later.
Setting [8] is: listed as 20% lysine, 20% lysine.

Consider `Nc1ccn([C@@H]2O[C@H](CO)[C@@H](O)C2(F)F)c(=O)n1` [5% gemcitabine, gemcitabine], for which the Tumor inhibition rate in test [1] amounted to 35.1%; in test [1] (listed as 0.05% gemcitabine), 5.6%; in test [1] (listed as 0.1% gemcitabine), 7.8%; in test [1] (listed as […] gemcitabine), 30.4%. Besides, the figures for the “Tumor weight (x ± s)” value in test [1] and in test [1] (listed as […] gemcitabine) were 0.191 ± 0.077 g and 0.204 ± 0.103 g, respectively.
For `N=C(N)NCCC[C@H](N)C(=O)O` [10% arginine, arginine], in the test with lung tumor cells (A549) (setting [7]), the “Tumor inhibition rate r” value was 24.7% and the “Tumor weight (x ± s)” value is reported as 0.164 ± 0.061 g. In the test on lung tumor cells (A549) (intravenous injection), the “Tumor inhibition rate r” value amounted to 6.4% and the “Tumor weight (x ± s)” value is given as 0.196 ± 0.077 g.
Consider `NCCCC[C@H](N)C(=O)O` [25% lysine, lysine], for which the “R7 d (relative tumor proliferation rate)” value in the test on breast cancer 4T1 cells [2] is reported as 96%. The “R21 d (relative tumor proliferation rate)” value in the test on breast cancer 4T1 cells [2] was found to be 102%. Besides, the Tumor inhibition rate in test [3] turned out to be 54.1%; in test [3] (5% lysine), 11.3%; in test [3] (listed as 1% lysine, 1% lysine), 5.2%; in test [3] (setting [8]), 43.6%. The “Tumor weight (x ± s)” value in test [3] amounted to 0.109 ± 0.074 g; in test [3] (5% lysine), 0.211 ± 0.091 g; in test [3] (listed as 1% lysine, 1% lysine), 0.226 ± 0.112 g; in test [3] (setting [8]) it was 0.134 ± 0.073 g.

B1: interleukin-12 (protein, UniProt P29459 23-219; P29460 23-328, looked up)
Interleukin-12 subunit alpha: RNLPVATPDPGMFPCLHHSQNLLRAVSNMLQKARQTLEFYPCTSEEIDHEDITKDKTSTVEACLPLELTKNESCLNSRETSFITNGSCLASRKTSFMMALCLSSIYEDLKMYQVEFKTMNAKLLMDPKRQIFLDQNMLAVIDELMQALNFNSETVPQKSSLEEPDFYKTKIKLCILLHAFRIRAVTIDRVMSYLNAS
Interleukin-12 subunit beta: IWELKKDVYVVELDWYPDAPGEMVVLTCDTPEEDGITWTLDQSSEVLGSGKTLTIQVKEFGDAGQYTCHKGGEVLSHSLLLLHKKEDGIWSTDILKDQKEPKNKTFLRCEAKNYSGRFTCWWLTTISTDLTFSVKSSRGSSDPQGVTCGAATLSAERVRGDNKEYEYSVECQEDSACPAAEESLPIEVMVDAVHKLKYENYTSSFFIRDIIKPDPPKNLQLKPLKNSRQVEVSWEYPDTWSTPHSYFSLTFCVQVQGKSKREKKDRVFTDKTSATVICRKNASISVRAQDRYYSSSWSEWASVPCS
notes: immunoenhancement control
Take B1: in the test with breast cancer 4T1 cells [4] (series A: intravenous injection), the “tumor inhibition rate rA” value came to 5.3%. Besides, in the test with breast cancer 4T1 cells [4] (series B: intratumoral injection), the “tumor inhibition rate rB” value amounted to 4.6%. In addition, in the test on breast cancer 4T1 cells [2], the “R7 d (relative tumor proliferation rate)” value stood at 99% and the “R21 d (relative tumor proliferation rate)” value was 97%. In the test on breast cancer 4T1 cells [5] (day 7 after last dose), the “relative tumor proliferation rate R7 d” value turned out to be 95%. The “relative tumor proliferation rate R21 d” value in the test on breast cancer 4T1 cells [5] (day 21 after last dose) was determined as 96%. For the same molecule, in test [6] (intratumoral injection), the “Tumor weight (x ± s)” value was found to be 0.241 ± 0.111 g and the “Tumor inhibition rate r” value worked out at 8.1%. In addition, in test [6] (intravenous injection), the “Tumor weight (x ± s)” value turned out to be 0.230 ± 0.102 g and the “Tumor inhibition rate r” value came out at 4.7%.
